Results reported in US5798336A, “Antimicrobial peptides” (priority 1995, dated 1998).
Where a SMILES comes first, the peptide text is derived from it.

Legend:
[1] = test system: P. aeruginosa ATCC 27853; details: Table 7A; RP-HPLC-purified peptides 500 μg/ml
[2] = test system: P. aeruginosa clinical isolates; format: cell-based, Pseudomonas aeruginosa; details: four independent clinical isolates
From the text: P. aeruginosa ATCC 27853 (American Type Culture Collection, Rockville, Md.) is the strain used for testing antimicrobial activity against P. aeruginosa unless otherwise noted. It is a standardized strain for antibiotic-susceptibility testing of pseudomonads (see, e.g., Code of Federal Regulations, Title 21, Part 460, 1987). […] Agents effective against P. aeruginosa are needed in the art because multiple antibiotic resistance is quite common among clinical strains, and therefore resultant infections are often difficult to treat.
^1 3-5 × 10^7 CFU/ml of the designated strains were exposed
to 500 μg/ml of HPLCpurified peptides in 1/100 strength BHSS (10 mm
sodium phosphate, pH 7.0, 10 mM NaCl.

[3] = test system: S. aureus strain 8325-4; details: strain 8325-4, 500
[4] = test system: N. gonorrhoeae strain FA 102
[5] = test system: S. aureus strain 8325-4; details: for % Survival of S. aureus: Table 3, all peptides at 5×10^-4 M
[6] = test system: S. aureus; format: cell-based, Staphylococcus aureus; details: Table 11; 50 μg/ml; 1% TSB, 2 h at 37° C.
[7] = test system: P. aeruginosa; assay: Bactericidal capacity of cathepsin G in 1% TSB, P. aeruginosa; format: cell-based, Pseudomonas aeruginosa; details: Table 11, 50 μg/ml, 2 h at 37° C.

Q: `CC[C@H](C)[C@H](NC(=O)[C@H](Cc1c[nH]c2ccccc12)NC(=O)[C@@H]1CCCN1C(=O)[C@H](CC(C)C)NC(=O)[C@H](Cc1ccccc1)NC(=O)[C@H](CO)NC(=O)[C@H](CO)NC(=O)[C@@H](NC(=O)[C@H](Cc1ccccc1)NC(=O)[C@H](CCCNC(=N)N)NC(=O)[C@@H](NC(=O)[C@H](Cc1ccccc1)NC(=O)[C@@H](NC(=O)[C@H](CCC(=O)O)NC(=O)[C@@H]1CCCN1C(=O)[C@@H]1CCCN1C(=O)[C@@H](NC(=O)CNC(=O)[C@H](CO)NC(=O)[C@H](CO)NC(=O)[C@H](CCCCN)NC(=O)CN)C(C)C)C(C)C)[C@@H](C)O)C(C)C)C(=O)N[C@@H](CCCNC(=N)N)C(=O)N[C@H](C(=O)N[C@H](C(=O)N[C@@H](CCSC)C(=O)N[C@@H](CCCNC(=N)N)C(=O)O)[C@@H](C)O)[C@@H](C)O` [CG 198-223] (H-GKSSGVPPEVFTRFVSSFLPWIRTTMR-OH; N-terminus and C-terminus assumed) was tested. Which “Log Kill (500 μg/ml) P. aeruginosa ATCC 278533” value [1] did it give?
A: 5.73 log

Q: And the “killing of P. aeruginosa clinical strains (in words)” value [2]?
A: some variability in effectiveness

Q: And the “Log Kill (500 μg/ml) S. aureus strain 8325-4” value [3]?
A: 0.26 log

Q: Which “bactericidal capacity compared with antibiotics and defensin pool (in words)” value ([4]; N. gonorrhoeae strain FA 102, each compound 5.0×10^-4 M, 30 min at 37° C., FIG. 5) does the source give for `O=C(N[C@H](CO)[C@H](O)c1ccc([N+](=O)[O-])cc1)C(Cl)Cl` [Chloramphenicol, reference compound] here?
A: more effective at this concentration than the defensin pool or the test peptides

Q: With `N=C(N)NCCC[C@H](NC(=O)[C@H](CCC(N)=O)NC(=O)[C@H](CC(N)=O)NC(=O)[C@H](Cc1ccc(O)cc1)NC(=O)[C@H](CCC(N)=O)NC(=O)[C@@H]1CCCN1C(=O)[C@@H](N)Cc1c[nH]cn1)C(=O)O` [HPQYNQR] (H-HPQYNQR-OH) as the compound, how does the “ED50 for N. gonorrhoeae” value [4] read?
A: 50 µM

Q: How did the “% Survival of S. aureus” value [5] turn out when H^Benzyl PQYNQR was run?
A: 99.0%

Q: How did the “% Survival of S. aureus” value [5] turn out when H^Dnp PQYNQR was run?
A: 102.2%

Q: How did the “ED50 for S. aureus” value ([5]; HBSS, optimal conditions) turn out when “enzymatically active Cat G: cathepsin G purified from extracts of human PMN granules” was run?
A: 4 µM

Q: What about the “Log Reduction in CFU/ml S. aureus” value [6] of the same compound?
A: 2.82 log

Q: And the “Log Reduction in CFU/ml P. aeruginosa” value [7]?
A: 2.41 log
